Where two headings read alike, the source gives them in different places.
System: RPE-Neo or RPE-MYC or RPE-MYC expressing an EGFP-Histone 2B fusion protein
Assay: Phenotypic screening assay (arrest in mitosis, change in DNA content, cell death; GE IN-Cell Analyzer 2000)
Type: cell-based
Settings: Homo sapiens, compounds 20 nM to 20 μM, 24, 48 or 72 hours
[1] = read-out: Min. Effective conc. for Polyploidy (≥10%)
[2] = min. effective conc., read-out: Cell Death (>30%)
[3] = min. effective conc., read-out: Mitotic Arrest (≥10%)

| Structure (SMILES) | minimal effective concentration [1] [µM] | minimal effective concentration [2] [µM] | minimal effective concentration [3] [µM] |
| --- | --- | --- | --- |
| COC(=O)C1=C(O)c2ccccc2N(Cc2ccc(C(F)(F)F)cc2)C(=O)C1 [Example 40, Methyl 5-hydroxy-2-oxo-1-(4-(trifluoromethyl)benzyl)-2,3-dihydro-1H-benzo[b]azepine-4-carboxylate] | 1 to 10 | 1 to 10 | 1 to 10 |
| COC(=O)C1=C(O)c2ccccc2N(Cc2ccc(C)c(F)c2)C(=O)C1 [Example 41, Methyl 1-(3-fluoro-4-methylbenzyl)-5-hydroxy-2-oxo-2,3-dihydro-1H-benzo[b]azepine-4-carboxylate] | 0.001 to 1 | 0.001 to 1 | 0.001 to 1 |
| COC(=O)C1=C(O)c2ccccc2N(Cc2ccc(C)c(Cl)c2)C(=O)C1 [Example 45, Methyl 1-(3-chloro-4-methylbenzyl)-5-hydroxy-2-oxo-2,3-dihydro-1H-benzo[b]azepine-4-carboxylate] | 1 to 10 | 1 to 10 | 1 to 10 |
| COC(=O)C1=C(O)c2ccccc2N(Cc2ccc(C)c(Br)c2)C(=O)C1 [Example 46, Methyl 1-(3-bromo-4-methylbenzyl)-5-hydroxy-2-oxo-2,3-dihydro-1H-benzo[b]azepine-4-carboxylate] | 1 to 10 | 1 to 10 | 1 to 10 |
| COC(=O)C1=C(O)c2ccccc2N(Cc2ccc(OC)c(F)c2)C(=O)C1 [Example 48, Methyl 1-(3-fluoro-4-methoxybenzyl)-5-hydroxy-2-oxo-2,3-dihydro-1H-benzo[b]azepine-4-carboxylate] | 0.001 to 1 | 0.001 to 1 | 0.001 to 1 |
| CCCc1ccc(CN2C(=O)CC(C(=O)OC)=C(O)c3ccccc32)cc1 [Example 49, Methyl 5-hydroxy-2-oxo-1-(4-propylbenzyl)-2,3-dihydro-1H-benzo[b]azepine-4-carboxylate] | 10 to 30 | 10 to 30 | 10 to 30 |
| CCCCc1ccc(CN2C(=O)CC(C(=O)OC)=C(O)c3ccccc32)cc1 [Example 50, Methyl 1-(4-butylbenzyl)-5-hydroxy-2-oxo-2,3-dihydro-1H-benzo[b]azepine-4-carboxylate] | 10 to 30 | 10 to 30 | 10 to 30 |
| COC(=O)C1=C(O)c2ccccc2N(Cc2ccc(OC)c(OC)c2)C(=O)C1 [Example 51, Methyl 1-(3,4-dimethoxybenzyl)-5-hydroxy-2-oxo-2,3-dihydro-1H-benzo[b]azepine-4-carboxylate] | 30 to 1000 | 30 to 1000 | 30 to 1000 |
| COC(=O)C1=C(O)c2cc(F)ccc2N(Cc2ccc(C)c(F)c2)C(=O)C1 [Example 52, Methyl 7-fluoro-1-(3-fluoro-4-methylbenzyl)-5-hydroxy-2-oxo-2,3-dihydro-1H-benzo[b]azepine-4-carboxylate] | 0.001 to 1 | 0.001 to 1 | 0.001 to 1 |
| COC(=O)C1=C(O)c2cnccc2N(Cc2ccc(C)c(F)c2)C(=O)C1 [Example 53, Methyl 1-(3-fluoro-4-methylbenzyl)-5-hydroxy-2-oxo-2,3-dihydro-1H-pyrido[4,3-b] azepine-4-carboxylate] | 1 to 10 | 1 to 10 | 1 to 10 |
| COC(=O)C1=C(O)c2cc(OC)c(OC)cc2N(Cc2ccc(C)c(F)c2)C(=O)C1 [Example 54, Methyl 1-(3-fluoro-4-methylbenzyl)-5-hydroxy-7,8-dimethoxy-2-oxo-2,3-dihydro-1H-benzo[b]azepine-4-carboxylate] | 0.001 to 1 | 0.001 to 1 | 0.001 to 1 |
| CCC(=O)C1=C(O)c2ccccc2N(Cc2ccc(C)c(F)c2)C(=O)C1 [Example 55, 1-(3-fluoro-4-methylbenzyl)-5-hydroxy-4-propionyl-1,3-dihydro-2H-benzo[b]azepin-2-one] | 0.001 to 1 | – | 0.001 to 1 |
| CC(=O)C1=C(O)c2ccccc2N(Cc2ccc(C)c(F)c2)C(=O)C1 [Example 56, 4-acetyl-1-(3-fluoro-4-methylbenzyl)-5-hydroxy-1,3-dihydro-2H-benzo[b]azepin-2-one] | 1 to 10 | – | 1 to 10 |
| CCCC(=O)C1=C(O)c2ccccc2N(Cc2ccc(C)c(F)c2)C(=O)C1 [Example 57, 4-butyryl-1-(3-fluoro-4-methylbenzyl)-5-hydroxy-1,3-dihydro-2H-benzo[b]azepin-2-one] | 1 to 10 | 1 to 10 | 0.001 to 1 |
| Cc1ccc(CN2C(=O)CC(C(=O)C3CC3)=C(O)c3ccccc32)cc1F [Example 58, 4-(cyclopropanecarbonyl)-1-(3-fluoro-4-methylbenzyl)-5-hydroxy-1,3-dihydro-2H-benzo[b]azepin-2-one] | 0.001 to 1 | 0.001 to 1 | 0.001 to 1 |
| Cc1ccc(CN2C(=O)CC(C(=O)C(C)C)=C(O)c3ccccc32)cc1F [Example 59, 1-(3-fluoro-4-methylbenzyl)-5-hydroxy-4-isobutyryl-1,3-dihydro-2H-benzo[b]azepin-2-one] | 0.001 to 1 | 0.001 to 1 | 0.001 to 1 |
| Cc1ccc(CN2C(=O)CC(C(=O)C(C)(C)C)=C(O)c3ccccc32)cc1F [Example 60, 1-(3-fluoro-4-methylbenzyl)-5-hydroxy-4-pivaloyl-1,3-dihydro-2H-benzo[b]azepin-2-one] | 1 to 10 | 1 to 10 | 1 to 10 |
| Cc1ccc(CN2C(=O)CC(C(=O)C3CCCO3)=C(O)c3ccccc32)cc1F (stereo not shown) [Example 62, 1-(3-fluoro-4-methylbenzyl)-5-hydroxy-4-(tetrahydrofuran-2-carbonyl)-1,3-dihydro-2H-benzo[b]azepin-2-one] | 1 to 10 | 1 to 10 | 1 to 10 |
| CNC(=O)C1=C(O)c2ccccc2N(Cc2ccc(C)c(F)c2)C(=O)C1 [Example 63, 1-(3-fluoro-4-methylbenzyl)-5-hydroxy-N-methyl-2-oxo-2,3-dihydro-1H-benzo[b]azepine-4-carboxamide] | 1 to 10 | 1 to 10 | 1 to 10 |
| CCNC(=O)C1=C(O)c2ccccc2N(Cc2ccc(C)c(F)c2)C(=O)C1 [Example 64, N-ethyl-1-(3-fluoro-4-methylbenzyl)-5-hydroxy-2-oxo-2,3-dihydro-1H-benzo[b]azepine-4-carboxamide] | 1 to 10 | 1 to 10 | 1 to 10 |
| Cc1ccc(CN2C(=O)CC(C(=O)NC(C)C)=C(O)c3ccccc32)cc1F [Example 65, 1-(3-fluoro-4-methylbenzyl)-5-hydroxy-N-isopropyl-2-oxo-2,3-dihydro-1H-benzo[b]azepine-4-carboxamide] | 1 to 10 | 1 to 10 | 1 to 10 |

From patent US20240270695A1, “COMPOUNDS, COMPOSITIONS AND METHODS OF TREATING DISORDERS” (Chengdu Anticancer Bioscience LTD, priority 2021, published 2024)
